# Measurements as given in patent US20240122180A1, “FUNGICIDAL HALOMETHYL KETONES AND HYDRATES AND THEIR MIXTURES” (FMC Corporation, priority 2020, published 2024).
# Assays:
# [1] = test system: Phakopsora pachyrhizi (the causal agent of Asian soybean rust); test: Test A: preventive spray on soybean seedlings, visual disease rating (100 = 100% control; * 50 ppm, ** 10 ppm, *** 250 ppm); format: in vivo; settings: 100 = 100% disease control; for pest or weed control at 10 ppm: Phakopsora pachyrhizi
# Outline: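 Preventive test: one day after spraying compound (acetone/water suspension, 250 ppm PEG400), seedlings received rust spore inoculum, 24 h in saturated air then 8 days in growth chamber, both at 22 °C. Disease control scored visually, 100 = complete, 0 = none, relative to untreated controls.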
# [2] = test system: Puccinia recondita f. sp. tritici (the causal agent of wheat leaf rust); test: Test B: preventive spray on wheat seedlings, disease rating (100 = 100% control; * 50 ppm, ** 10 ppm, *** 250 ppm); format: in vivo; settings: 100 = 100% disease control; for pest or weed control at 10 ppm: Puccinia recondita
# Outline: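 Preventive test: Puccinia recondita f. sp. tritici spores were inoculated one day after run-off spraying of wheat seedlings with test suspension (acetone/water 50/50, 250 ppm PEG400). After 24 h in saturated air and 6 days in a growth chamber, both at 20° C, control was scored 0–100 versus untreated plants.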
# [3] = 10 ppm test suspension, soybean seedlings
# [4] = 10 ppm test suspension, wheat seedlings
# [5] = 10 ppm test suspension, 0 = no control
# [6] = 50 ppm test suspension, 0 = no control
# [7] = 50 ppm test suspension, soybean seedlings
# [8] = 50 ppm test suspension, wheat seedlings
smiles,measurement,setting,value
C#CCOC(=O)c1ccc(O/C=C(\OCC)C(F)(F)F)cc1 [compound 75],Test A disease control rating,[1]; [3],0%
same,Test B disease control rating,[2]; [4],0%
CCOC(=COc1ccc(CN2CCC(C(=O)OC)C2)cc1)C(F)(F)F (stereo not shown) [compound 310],Test A disease control rating,[1]; [5],100%
same,Test B disease control rating,[2]; [5],0%
CCO/C(=C\Oc1cccc(Cn2cc(C(=O)OCCOC)cn2)c1)C(F)(F)F [compound 340],Test A disease control rating,[1]; [5],100%
same,Test B disease control rating,[2]; [5],0%
CCOC(=O)c1cnn(Cc2ccc(OCC3(C(F)(F)F)NCCO3)cc2)c1 (stereo not shown) [compound 21],Test A disease control rating,[1]; [3],84%
same,Test B disease control rating,[2]; [4],23%
C=CCNC(=O)c1ccc(O/C=C(\OCC)C(F)(F)F)cc1 [compound 103],Test A disease control rating,[1]; [3],0%
same,Test B disease control rating,[2]; [4],0%
CON(Cc1ccc(OCC2(C(F)(F)F)OCCO2)cc1)C(=O)OC(C)(C)C [compound 238],Test A disease control rating,[1]; [3],73%
same,Test B disease control rating,[2]; [4],0%
CCOC(=O)c1cnn(COc2ccc(OCC(O)(O)C(F)(F)F)cc2F)c1 [compound 424],pest or weed control at 10 ppm,[1]; [5],97%
same,pest or weed control at 10 ppm,[2]; [5],41%
CCOC(=O)c1cnn(C(C)c2cccc(O/C=C(\OCC)C(F)(F)F)c2)c1 (stereo not shown) [compound 304],Test A disease control rating,[1]; [6],96%
same,Test B disease control rating,[2]; [6],0%
CCNC(=O)N1CC(c2ccc(OC=C(OCC)C(F)(F)F)cc2)C1 [compound 412],Test A disease control rating,[1]; [6],100%
same,Test B disease control rating,[2]; [6],0%
O=C(NCC(F)(F)F)c1cnc(Cc2ccc(OCC(O)(O)C(F)(F)F)cc2)o1 [compound 274],Test A disease control rating,[1]; [5],48%
same,Test B disease control rating,[2]; [5],0%
O=C(OCC(F)(F)F)c1cnn(Cc2ccc(OCC(O)(O)C(F)(F)F)cc2)c1 [compound 45],Test A disease control rating,[1]; [3],87%
same,Test B disease control rating,[2]; [4],85%
CCOC(=COc1ccc(Cc2ccnc(SC)n2)cc1)C(F)(F)F [compound 308],Test A disease control rating,[1]; [6],25%
same,Test B disease control rating,[2]; [6],0%
CCOC(=COc1ccc(Cn2ccc(C(=O)OC(C)(C)C)n2)cc1)C(F)(F)F [compound 253],Test A disease control rating,[1]; [3],0%
same,Test B disease control rating,[2]; [4],0%
CCOC(=O)c1cnn(Cc2ccc(OCC3(C(F)(F)F)OC(=O)CS3)cc2)c1 (stereo not shown) [compound 20],Test A disease control rating,[1]; [3],98%
same,Test B disease control rating,[2]; [4],86%
CCOC(=O)c1ccn(Cc2cc(C)cc(O/C=C(\OCC)C(F)(F)F)c2)n1 [compound 405],Test A disease control rating,[1]; [6],0%
same,Test B disease control rating,[2]; [6],0%
CCO/C(=C\Oc1cccc(Cn2cc(C(=O)OCC(F)F)cn2)c1)C(F)(F)F [compound 347],Test A disease control rating,[1]; [6],100%
same,Test B disease control rating,[2]; [6],0%
CCOC(=O)c1csc(Cc2ccc(OCC3(C(F)(F)F)OCCO3)cc2)n1 [compound 137],Test A disease control rating,[1]; [3],79%
same,Test B disease control rating,[2]; [4],0%
CCOC(=COc1ccc(Cc2ccnc(OCC[Si](C)(C)C)n2)cc1)C(F)(F)F [compound 313],Test A disease control rating,[1]; [6],0%
same,Test B disease control rating,[2]; [6],0%
CCOC(=COc1ccc(NC(=O)C2CC2)cc1)C(F)(F)F [compound 371],Test A disease control rating,[1]; [6],0%
same,Test B disease control rating,[2]; [6],77%
O=C(NCc1ccc(OCC2(C(F)(F)F)OCCO2)cc1)C1CC1 [compound 176],Test A disease control rating,[1]; [3],0%
same,Test B disease control rating,[2]; [4],0%
CCOC(=O)c1cnn(Cc2ccc(NCC3(C(F)(F)F)OCCO3)cc2)c1 [compound 443],Test A disease control rating,[1]; [6],48%
same,Test B disease control rating,[2]; [6],0%
CCOC(=O)C1=NOC(Cc2ccc(OCC3(C(F)(F)F)OCCO3)cc2)C1 (stereo not shown) [compound 289],Test A disease control rating,[1]; [5],0%
same,Test B disease control rating,[2]; [5],0%
O=C(OCc1ccccn1)c1cnn(Cc2ccc(OCC3(C(F)(F)F)OCCO3)cc2)c1 [compound 199],Test A disease control rating,[1]; [3],100%
same,Test B disease control rating,[2]; [4],0%
CCCO/C(=C\Oc1cccc(Cn2cc(C(=O)OCC)cn2)c1)C(F)(F)F [compound 324],Test A disease control rating,[1]; [5],0%
same,Test B disease control rating,[2]; [5],0%
CCOC(=O)c1cnn(COc2cccc(O/C=C(\OCC)C(F)(F)F)c2)c1 [compound 321],pest or weed control at 10 ppm,[1]; [5],100%
same,pest or weed control at 10 ppm,[2]; [5],0%
CCO/C(=C\Oc1ccc(Cn2cc(C(=O)NCC(F)(F)F)cn2)cc1)C(F)(F)F [compound 106],Test A disease control rating,[1]; [3],0%
same,Test B disease control rating,[2]; [4],0%
CCOC(=COc1ccc(CC2CC(C(=O)N(C)C)=NO2)cc1)C(F)(F)F (stereo not shown) [compound 288],Test A disease control rating,[1]; [6],96%
same,Test B disease control rating,[2]; [6],0%
CS(=O)(=O)c1ccc(OCC2(C(F)(F)F)OCCO2)cc1 [compound 24],Test A disease control rating,[1]; [3],81%
same,Test B disease control rating,[2]; [4],91%
CCOC(=O)c1ccn(Cc2ccc(OC)c(O/C=C(\OCC)C(F)(F)F)c2)n1 [compound 407],Test A disease control rating,[1]; [6],0%
same,Test B disease control rating,[2]; [6],0%
CCO/C(=C\Oc1ccc(CN2C(=O)c3ccccc3C2=O)cc1)C(F)(F)F [compound 184],Test A disease control rating,[1]; [3],0%
same,Test B disease control rating,[2]; [4],0%
CCOC(=COc1ccc(CN2CCC(C#N)CC2)cc1)C(F)(F)F [compound 311],Test A disease control rating,[1]; [5],0%
same,Test B disease control rating,[2]; [5],0%
CN(C)S(=O)(=O)c1ccc(OCC2(C(F)(F)F)OCCO2)cc1 [compound 25],Test A disease control rating,[1]; [3],0%
same,Test B disease control rating,[2]; [4],0%
CCOC(=O)c1ccnn1Cc1ccc(F)c(O/C=C(\OCC)C(F)(F)F)c1 [compound 419],Test A disease control rating,[1]; [5],0%
same,Test B disease control rating,[2]; [5],0%
CCO/C(=C\Oc1ccc(CNC(=O)CC(F)(F)F)cc1)C(F)(F)F [compound 113],Test A disease control rating,[1]; [3],0%
same,Test B disease control rating,[2]; [4],0%
CCO/C(=C\Oc1ccc(C(=O)OC(C)C)cc1)C(F)(F)F [compound 73],Test A disease control rating,[1]; [3],0%
same,Test B disease control rating,[2]; [4],0%
C=CC(F)(F)OC(=O)c1cnn(Cc2ccc(OCC(O)(O)C(F)(F)F)cc2)c1 [compound 38],Test A disease control rating,[1]; [3],97%
same,Test B disease control rating,[2]; [4],89%
CCO/C(=C\Oc1ccc(COC(N)=O)cc1)C(F)(F)F [compound 193],Test A disease control rating,[1]; [3],0%
same,Test B disease control rating,[2]; [4],86%
CCOC(=O)c1ccnn1Cc1ccc(OC)c(O/C=C(\OCC)C(F)(F)F)c1 [compound 463],Test A disease control rating,[1]; [5],0%
same,Test B disease control rating,[2]; [5],0%
C=CCOC(=O)c1cnn(Cc2ccc(OCC(O)(O)C(F)(F)F)cc2)c1 [compound 43],Test A disease control rating,[1]; [3],96%
same,Test B disease control rating,[2]; [4],60%
CC(C)OC(=O)c1cnn(Cc2ccc(OCC3(C(F)(F)F)OCCO3)cc2)c1 [compound 14],Test A disease control rating,[1]; [3],100%
same,Test B disease control rating,[2]; [4],0%
CCOC(=O)C=CCOc1ccc(OCC(O)(O)C(F)(F)F)cc1 [compound 97],Test A disease control rating,[1]; [7],94%
same,Test B disease control rating,[2]; [8],0%
C#CCNC(=O)c1ccc(O/C=C(\OCC)C(F)(F)F)cc1 [compound 102],Test A disease control rating,[1]; [3],0%
same,Test B disease control rating,[2]; [4],0%
CN(C)C(=O)C1=NOC(Cc2ccc(OCC3(C(F)(F)F)OCCO3)cc2)C1 (stereo not shown) [compound 290],Test A disease control rating,[1]; [6],50%
same,Test B disease control rating,[2]; [6],19%
CCOC(=O)c1cnn(Cc2cccc(O/C=C(\OC)C(F)(F)F)c2)c1 [compound 365],Test A disease control rating,[1]; [5],100%
same,Test B disease control rating,[2]; [5],0%
O=C(OCc1ccc(F)c(F)c1)c1cnn(Cc2ccc(OCC3(C(F)(F)F)OCCO3)cc2)c1 [compound 18],Test A disease control rating,[1]; [3],100%
same,Test B disease control rating,[2]; [4],0%
CCO/C(=C\Oc1ccc(Cn2ccnc2)cc1)C(F)(F)F [compound 156],Test A disease control rating,[1]; [3],0%
same,Test B disease control rating,[2]; [4],0%
O=C(NCC(F)(F)F)c1cnc(Cc2ccc(OCC3(C(F)(F)F)OCCO3)cc2)s1 [compound 275],Test A disease control rating,[1]; [5],0%
same,Test B disease control rating,[2]; [5],0%
CCOC(=O)c1cnn(COc2ccc(O/C=C(\OCC)C(F)(F)F)cc2F)c1 [compound 425],pest or weed control at 10 ppm,[1]; [5],100%
same,pest or weed control at 10 ppm,[2]; [5],0%
CCOC(=O)c1cnn(Cc2ccc(O/C=C(\OC)C(F)(F)F)cc2)c1 [compound 53],Test A disease control rating,[1]; [7],100%
same,Test B disease control rating,[2]; [8],67%
CCO/C(=C\Oc1ccc(Cn2cc(C(=O)OC)c3ccccc32)cc1)C(F)(F)F [compound 91],Test A disease control rating,[1]; [3],0%
same,Test B disease control rating,[2]; [4],0%
CSc1nccc(Cc2ccc(OCC3(C(F)(F)F)OCCO3)cc2)n1 [compound 281],Test A disease control rating,[1]; [6],95%
same,Test B disease control rating,[2]; [6],98%
O=C(OCC1CCC1)c1cnn(Cc2ccc(OCC3(C(F)(F)F)OCCO3)cc2)c1 [compound 249],Test A disease control rating,[1]; [3],100%
same,Test B disease control rating,[2]; [4],0%
CCOC(=O)c1ccn(Cc2cc(OC)cc(O/C=C(\OCC)C(F)(F)F)c2)n1 [compound 378],Test A disease control rating,[1]; [5],0%
same,Test B disease control rating,[2]; [5],0%
CCOC(=COc1ccc(COC)cc1)C(F)(F)F [compound 433],Test A disease control rating,[1]; [6],0%
same,Test B disease control rating,[2]; [6],0%
CCO/C(=C\Oc1ccc(Cn2ncnc2C(=O)OC)cc1)C(F)(F)F [compound 122],Test A disease control rating,[1]; [3],0%
same,Test B disease control rating,[2]; [4],0%
O=C(OC1CCC1)c1cnn(Cc2ccc(OCC3(C(F)(F)F)OCCO3)cc2)c1 [compound 318],Test A disease control rating,[1]; [5],100%
same,Test B disease control rating,[2]; [5],0%
